Tests used:
Test in all cases: relative viability (nuclei count vs DMSO), 5 days (fraction); higher = more cells survive
[1] = compound: CC1CC(=O)N(C2=CN=C(N=C2N1C3CCCC3)NC4=C(C=C(C=C4)C(=O)NC5CCN(CC5)C)OC)C [NPK76-II-72-1] + CC(C)C[C@H](NC(=O)[C@H](Cc1ccccc1)NC(=O)c1cnccn1)B(O)O [Bortezomib] (partner 0.002 µM)
How it was run: (§1)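 Relative viability is defined as nuclei in treated wells over nuclei in vehicle wells. Duplicate plates were run and medians reported. Lung cancer cell lines in 1536-well plates were dosed by pin tool one day after seeding, with one drug or with a fixed anchor-drug dose plus five library-drug doses (not always all listed) in √10 steps, and nuclei were counted after 5 days.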

[2] = compound: CC1CC(=O)N(C2=CN=C(N=C2N1C3CCCC3)NC4=C(C=C(C=C4)C(=O)NC5CCN(CC5)C)OC)C [NPK76-II-72-1] + Cc1nc(Nc2ncc(C(=O)Nc3c(C)cccc3Cl)s2)cc(N2CCN(CCO)CC2)n1 [Dasatinib] (partner 0.075 µM)
How it was run: as §1

[3] = compound: CC[C@@H]1C(=O)N(C)c2cnc(Nc3ccc(C(=O)NC4CCN(C)CC4)cc3OC)nc2N1C1CCCC1 [BI-2536] + CS(=O)(=O)CCNCc1ccc(-c2ccc3ncnc(Nc4ccc(OCc5cccc(F)c5)c(Cl)c4)c3c2)o1 [Lapatinib] (partner 2 µM)
How it was run: as §1

[4] = compound: CC1CC(=O)N(C2=CN=C(N=C2N1C3CCCC3)NC4=C(C=C(C=C4)C(=O)NC5CCN(CC5)C)OC)C [NPK76-II-72-1] + CCNC(=O)c1noc(-c2cc(C(C)C)c(O)cc2O)c1-c1ccc(CN2CCOCC2)cc1 [Luminespib] (partner 0.01 µM)
How it was run: as §1

Cell Line: UMC-11
- relative viability ([1]; first compound 0.01 µM): 0.743
- relative viability ([1]; first compound 0.03162 µM): 0.605
- relative viability ([1]; first compound 0.1 µM): 0.773
- relative viability ([1]; first compound 0.3162 µM): 0.659
- relative viability ([1]; first compound 1 µM): 0.788
- relative viability ([2]; first compound 0.01 µM): 0.45
- relative viability ([2]; first compound 0.03162 µM): 0.509
- relative viability ([2]; first compound 0.1 µM): 0.441
- relative viability ([2]; first compound 1 µM): 0.447
- relative viability ([3]; first compound 0.01 µM): 1.02
- relative viability ([3]; first compound 0.03162 µM): 0.765
- relative viability ([3]; first compound 0.1 µM): 0.132
- relative viability ([3]; first compound 0.3162 µM): 0.17
- relative viability ([3]; first compound 1 µM): 0.18
- relative viability ([4]; first compound 0.01 µM): 0.997
- relative viability ([4]; first compound 0.03162 µM): 1
- relative viability ([4]; first compound 0.1 µM): 0.934
- relative viability ([4]; first compound 1 µM): 0.988
